Source: patent US20070032480A1, “Treatment of ischemia-induced arrhythmias” (The Johns Hopkins University, priority 2005, published 2007)
Entries after “also recorded” stand apart in the source; their conditions may differ.

Key:
[1] = tested on: Langendorff-perfused guinea pig hearts; assay: Baseline electrophysiological properties (APD, CV) of perfused hearts by optical mapping; conditions: for baseline APD / baseline CV (conduction velocity): optimal concentration of each agent (4.6 μM FGIN-1-27, 0.2 μM CsA, 64 μM 4′Cl-DZP, 10 μM GLIBEN)
Description: All procedures involving the handling of animals were approved by the Animal Care and Use Committee of the Johns Hopkins University and adhered with public health service guidelines. As described in detail elsewhere (28), adult guinea pigs (n=48) were anesthetized with pentobarbital sodium (30 mg/kg ip), and retrogradely perfused as Langendorff preparations with oxygenated (95% 02-5% CO2) Tyrode solution containing (in mmol/l) 130 NaCl, 1.2 MgSO4, 4.75 KCl, 5.0 dextrose, and 1.25 CaCl2 (pH 7.40) at 36±1° C. Hearts were stained with the voltage-sensitive dye, di-4-ANEPPS (15 μmol/l) for 10 min, and then positioned in a chamber such that the mapping field was centered over a 0.8 cm diameter region of left ventricular epicardium, midway between apex and base. Gentle pressure was applied to the posterior surface of the heart with a movable piston to stabilize the mapped surface against the imaging window of the chamber allowing us to avoid the use of electromechanical inhibitors, which interfere with repolarization, and the incidence of arrhythmias. […] Pacing with a silver pin needle placed on the epicardium was performed intermittently and briefly at various times during the experimental protocol in order to obtain a quantitative assessment of epicardial conduction velocity at each time point. Pacing was then turned off in order to determine the intrinsic response of hearts to the ischemia reperfusion protocol independent of exogenous stimulation.
(§1) An optical mapping system was designed with the capability of simultaneously recording transmembrane action potentials (APs) from 464 sites. Emitted fluorescence was collected using a custom designed optical macroscope imaging system consisting of a high numerical aperture photographic lens, a dichroic mirror and an emission filter as previously described in detail (29). Emitted light exiting the detector lens was filtered (>610 nm) and focused onto the photodiode array. Photocurrent from each photodiode underwent current-to-voltage conversion, amplification, band-pass filtering, multiplexing, and digitization (1600 samples/s per channel) with 16-bit precision.
Following extraction and staining with di-4-ANEPPS, hearts were stabilized for 30 min. […] Pharmacological agents were delivered to the heart in one of two ways: 1) continuously, during control perfusion and reperfusion, or 2) in a high dose bolus (5-10× the optimal equilibration concentration), injected into the coronaries during the ischemic phase, 5 min before the onset of reperfusion. […] Following baseline perfusion at 15-20 mL/min to maintain a perfusion pressure of 60-70 mmHg, flow was completely stopped for 30 min (Ischemia phase), and APs (3.8 s epochs) were recorded at 1-min intervals. Following the ischemia phase, perfusion was restored initially at the same flow rate and then was adjusted slightly to exactly match the perfusion pressure during the baseline perfusion phase (Reperfusion phase). The optimal equilibration concentration of each agent was determined by its effects on ischemia-induced AP shortening, recovery of the AP duration (APD), and/or prevention of arrhythmias upon reperfusion.
In order to investigate whether mitochondrial ROS-induced activation of IMAC underlies the electrical dysfunction of hearts subjected to IR, a protocol for reproducibly inducing ventricular fibrillation (VF) in Langendorff-perfused guinea pig hearts was established.

[2] = tested on: Langendorff-perfused guinea pig hearts; assay: Electrophysiological response to 30 min no-flow global ischemia; conditions: for time for the onset of inexcitability during ischemia: no-flow ischemia, control hearts ˜18 min; for ischemia-induced APD shortening: pre-treatment before no-flow ischemia; for ischemia-induced APD shortening / ischemia-induced reduction of normalized APA and upstroke velocity (dF/dt): versus control hearts; for ischemia-induced reduction of normalized APA and upstroke velocity (dF/dt): relative to pre-ischemia baseline; for blunting of AP shortening and persistence of APs during ischemia at the highest concentration: 100 μM, 30 min no-flow ischemia
Description: (§2) All procedures involving the handling of animals were approved by the Animal Care and Use Committee of the Johns Hopkins University and adhered with public health service guidelines. As described in detail elsewhere (28), adult guinea pigs (n=48) were anesthetized with pentobarbital sodium (30 mg/kg ip), and retrogradely perfused as Langendorff preparations with oxygenated (95% 02-5% CO2) Tyrode solution containing (in mmol/l) 130 NaCl, 1.2 MgSO4, 4.75 KCl, 5.0 dextrose, and 1.25 CaCl2 (pH 7.40) at 36±1° C. Hearts were stained with the voltage-sensitive dye, di-4-ANEPPS (15 μmol/l) for 10 min, and then positioned in a chamber such that the mapping field was centered over a 0.8 cm diameter region of left ventricular epicardium, midway between apex and base. Gentle pressure was applied to the posterior surface of the heart with a movable piston to stabilize the mapped surface against the imaging window of the chamber allowing us to avoid the use of electromechanical inhibitors, which interfere with repolarization, and the incidence of arrhythmias. Although experiments were typically completed within 1.5 to 2 h, these preparations remained stable for over 4 h of perfusion. Pacing with a silver pin needle placed on the epicardium was performed intermittently and briefly at various times during the experimental protocol in order to obtain a quantitative assessment of epicardial conduction velocity at each time point. Pacing was then turned off in order to determine the intrinsic response of hearts to the ischemia reperfusion protocol independent of exogenous stimulation.
as §1
(§3) Following extraction and staining with di-4-ANEPPS, hearts were stabilized for 30 min. Monitoring of APs, perfusion pressure, coronary flow, and temperature ensured electrical stability in all preparations (n=48) used in this study. Pharmacological agents were delivered to the heart in one of two ways: 1) continuously, during control perfusion and reperfusion, or 2) in a high dose bolus (5-10× the optimal equilibration concentration), injected into the coronaries during the ischemic phase, 5 min before the onset of reperfusion. […] Following baseline perfusion at 15-20 mL/min to maintain a perfusion pressure of 60-70 mmHg, flow was completely stopped for 30 min (Ischemia phase), and APs (3.8 s epochs) were recorded at 1-min intervals. Following the ischemia phase, perfusion was restored initially at the same flow rate and then was adjusted slightly to exactly match the perfusion pressure during the baseline perfusion phase (Reperfusion phase). The optimal equilibration concentration of each agent was determined by its effects on ischemia-induced AP shortening, recovery of the AP duration (APD), and/or prevention of arrhythmias upon reperfusion.
Next, the ability of any of these pharmacological interventions to modulate the electrophysiological response of hearts to no-flow global ischemia was tested. […] Also, APD shortening in ischemia was accompanied by progressive reduction of the AP upstroke velocity, which occurred over a similar time frame (see, for example, FIG. 4).
Ischemic elevation of extracellular K^+ concentration, which may be mediated in part by KATP channel opening, might also be expected to partially depolarize the cellular resting membrane potential. […]

[3] = tested on: Langendorff-perfused guinea pig hearts; assay: Response to reperfusion after 30 min ischemia (arrhythmias, AP recovery); conditions: for period of electrical inexcitability upon reperfusion: 0.2 μM CsA, 4′-Cl-DZP pretreated hearts; for post-ischemic (reperfusion) arrhythmias, effect in words: reperfusion after 30 min ischemia
Description: as §2, §1, §3
Reperfusion of untreated control hearts was associated with sustained ventricular fibrillation (VF) in 89% of hearts (FIG. 5).

[4] = tested on: freshly isolated adult guinea pig ventricular myocytes; assay: ΔΨm oscillations and action potentials in isolated cardiomyocytes (two-photon TMRM imaging with current-clamp); assay type: cell-based

CCCCCCN(CCCCCC)C(=O)Cc1c(-c2ccc(F)cc2)[nH]c2ccccc12 [FGIN-1-27]
effect on APD and excitability during normal perfusion ([1]; 46 μM, normal perfusion): significant APD shortening and membrane inexcitability
time from drug delivery to APD shortening and membrane inexcitability ([1]; 46 μM, normal perfusion): ≤ 15 min
baseline APD ([1]; baseline perfusion): 174 ± 16 ms
baseline CV (conduction velocity) ([1]; baseline perfusion): 44 ± 6 cm/s
time for the onset of inexcitability during ischemia [2]: 12.7 ± 2.6 min
ischemia-induced APD shortening [2]: accelerated APD shortening during ischemia
ischemia-induced reduction of normalized APA and upstroke velocity (dF/dt) [2]: accentuated the ischemia-induced reduction of APA and dF/dt; also recorded: more enhanced reduction of action potential amplitude
slowing of CV during ischemia ([2]; versus untreated hearts): disproportionate slowing of CV
period of electrical inexcitability upon reperfusion [3]: prolonged period of electrical silence
hearts with ventricular tachycardia (VT) upon reperfusion ([3]; FGIN-1-27 treated hearts): 6 of 6
cycle length of VT upon reperfusion ([3]; compared to control hearts): significantly longer cycle length
post-ischemic (reperfusion) arrhythmias, effect in words [3]: long period of electrical silence followed by ventricular tachycardia (VT) of long duration

CN1C(=O)CN=C(c2ccc(Cl)cc2)c2cc(Cl)ccc21 [4′-Cl-DZP, 4′-chlorodiazepam]
time from drug application to suppression of AP oscillations and stabilisation of APD90 ([4]; 64 μM): ≤ 2 min
oscillations in APD ([4]; current-clamp, laser-triggered oscillations, 64 μM): eliminated oscillations in APD; also recorded: APD oscillations are eliminated
whole-cell oscillations in ΔΨm ([4]; oscillations triggered by focal two-photon laser flash, TMRM fluorescence): suppressed whole-cell oscillations in ΔΨm; also recorded: interruption of mitochondrial oscillations with ΔΨm recovery
time to return of ΔΨm oscillations after washout of the compound ([4]; washout, FIG. 1A): ≤ 10 min
effect on APD or CV during baseline perfusion ([1]; 100 μM, baseline perfusion): no significant effect on APD or CV; also recorded: comparable
baseline APD ([1]; baseline perfusion): 188 ± 16 ms
baseline CV (conduction velocity) ([1]; baseline perfusion): 39 ± 5 cm/s
blunting of AP shortening and persistence of APs during ischemia at the highest concentration [2]: APs persisted even after 30 min of no-flow ischemia
blunting of AP shortening and persistence of APs during ischemia at the highest concentration ([2]; listed as 4′Cl-DZP): most effective in blunting AP shortening during ischemia
ischemia-induced APD shortening [2]: blunted APD shortening in a dose-dependent fashion; also recorded: blunted APD shortening during ischemia
ischemia-induced reduction of normalized APA and upstroke velocity (dF/dt) [2]: protected against such decrease in both parameters
period of electrical inexcitability upon reperfusion [3]: < 2 min
restoring the APD upon reperfusion and preventing arrhythmias ([3]; 100 μM versus 64 μM): not as effective as the lower concentration of 64 μM in restoring the APD upon reperfusion and preventing arrhythmias
prevention of reperfusion-related VF ([3]; 320 μM high dose bolus 5 min prior to onset of reperfusion): 4 of 4
prevention of reperfusion-related VF ([3]; 32-64 μM delivered continuously prior to ischemia): 6 of 8
hearts that exhibited no sustained arrhythmias upon reperfusion ([3]; all 4′-Cl-DZP treated hearts (continuous and bolus)): 10 of 12
recovery of the AP upon reperfusion ([3]; optimal concentrations (64 μM 4′-Cl-DZP, 0.2 μM CsA)): promoted the rapid recovery of the AP morphology and duration
post-ischemic (reperfusion) arrhythmias, effect in words [3]: markedly decreased the incidence of post-ischemic arrhythmias; also recorded: more effective than continuous inhibition of KATP channels
post-ischemic (reperfusion) arrhythmias, effect in words ([3]; listed as 4′CL-DZP): prevented reperfusion-related ventricular fibrillation

COc1ccc(Cl)cc1C(=O)NCCc1ccc(S(=O)(=O)NC(=O)NC2CCCCC2)cc1 [GLIBEN]
baseline APD ([1]; baseline perfusion): 182 ± 16 ms
baseline CV (conduction velocity) ([1]; baseline perfusion): 41 ± 5 cm/s
time for the onset of inexcitability during ischemia [2]: ~18 min
ischemia-induced APD shortening [2]: marked reduction in the rate of APD shortening
ischemia-induced reduction of normalized APA and upstroke velocity (dF/dt) [2]: protected against such decrease in both parameters
hearts in which tachyarrhythmias were prevented ([3]; bolus dose given just prior to reperfusion): 2 of 3
